Data: patent publication US20250326771A1, “PIPERAZINE DERIVATIVES USEFUL IN HIV THERAPY” (VIIV HEALTHCARE COMPANY, priority 2022, published 2025)
Like-named read-outs stand apart in the source and are kept apart here.

How the values were obtained:
[1] = target: cIAP2-BIR3 (Homo sapiens (Human), UniProt Q13489); test: BIR binding assay (FRET competition), cIAP2 BIR3; conditions: for cIAP2 BIR3 vs BIR2 separation window: fold separation (FS) for cIAP2
[2] = target: XIAP-BIR3 (Homo sapiens (Human), UniProt P98170); test: BIR binding assay (FRET competition), XIAP BIR3; conditions: for XIAP BIR3 vs BIR2 separation window: fold separation (FS) for XIAP
Sequence of XIAP-BIR3 (P98170 241-356): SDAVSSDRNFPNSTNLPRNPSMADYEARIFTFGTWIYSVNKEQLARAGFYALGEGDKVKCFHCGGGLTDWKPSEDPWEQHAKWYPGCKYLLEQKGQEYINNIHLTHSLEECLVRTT
In short: (§1)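 Each domain is run separately at its own level: 50 nM cIAP1-BIR3, 100 nM XIAP-BIR3, 325 nM for cIAP1-BIR2 or cIAP2-BIR2. Probe is a 200 nM fluorescent SMAC peptide, and the value is IC50 from FRET competition.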

[3] = target: cIAP2-BIR2 (Homo sapiens (Human), UniProt Q13489); test: BIR binding assay (FRET competition), cIAP2 BIR2
Sequence of cIAP2-BIR2 (Q13489 158-242): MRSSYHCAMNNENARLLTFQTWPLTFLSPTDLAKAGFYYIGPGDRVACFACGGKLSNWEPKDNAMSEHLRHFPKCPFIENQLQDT
In short: as §1

[4] = test system: Jurkat HIV-luciferase clones; test: Jurkat latency reversal assay; assay type: cell-based; conditions: Homo sapiens, 48 h; Jurkat latency reversal assay potency; read-out: Jurkat pEC50 (converted)
In short: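 Three pooled Jurkat reporter clones, each with one or two integrated HIV-luciferase proviruses, 5,000 cells/well; duplicate 14-point titrations starting at 10 μM; 48 h, 37° C, then Steady-Glo luminescence; four-parameter logistic analysis yields EC50 and percent maximal activation against DMSO vehicle.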

[5] = target: cIAP1-BIR2 (Homo sapiens (Human), UniProt Q13490); test: BIR binding assay (FRET competition), cIAP1 BIR2
Sequence of cIAP1-BIR2 (Q13490 173-257): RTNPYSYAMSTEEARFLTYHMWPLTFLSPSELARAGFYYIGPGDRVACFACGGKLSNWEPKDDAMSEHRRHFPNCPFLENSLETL
In short: as §1

[6] = target: XIAP-BIR2 (Homo sapiens (Human), UniProt P98170); test: BIR binding assay (FRET competition), XIAP BIR2; conditions: read-out: XIAP BIR2 (pIC50) (converted)
Sequence of XIAP-BIR2 (P98170 124-240): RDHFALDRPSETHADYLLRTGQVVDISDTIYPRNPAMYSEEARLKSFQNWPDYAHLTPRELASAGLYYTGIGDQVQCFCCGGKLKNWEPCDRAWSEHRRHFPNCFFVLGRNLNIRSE
In short: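 Compounds in a 15-point, 3-fold series competed with an AlexaFluor647 SMAC peptide (AVPIAQKSE, 200 nM) for 200 nM His-tagged XIAP-BIR2 over 60 min in pH 7.4 HEPES/CHAPS/DTT buffer. Eu-W1024 (2 nM) was then added for 30 min. IC50 and pIC50 were derived from the 615 nm/665 nm emission ratio by variable-slope fit.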

[7] = target: cIAP1-BIR3 (Homo sapiens (Human), UniProt Q13490); test: BIR binding assay (FRET competition), cIAP1 BIR3; conditions: for cIAP1 BIR3 vs BIR2 separation window: fold separation (FS) for cIAP1
Sequence of cIAP1-BIR3 (Q13490 253-363): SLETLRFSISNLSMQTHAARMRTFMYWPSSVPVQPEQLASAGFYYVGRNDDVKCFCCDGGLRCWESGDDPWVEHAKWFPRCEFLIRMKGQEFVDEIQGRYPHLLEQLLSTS
In short: as §1

Sequence of cIAP2-BIR3 (Q13489 238-349): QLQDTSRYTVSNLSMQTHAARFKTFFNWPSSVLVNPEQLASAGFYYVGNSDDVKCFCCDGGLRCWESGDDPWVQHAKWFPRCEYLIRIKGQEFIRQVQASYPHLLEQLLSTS

SMILES | IC50 [1] | cIAP2 BIR3 vs BIR2 separation window [1] | IC50 [2] | XIAP BIR3 vs BIR2 separation window [2] | IC50 [3] | EC50 [4] | IC50 [5] | IC50 ([6]; FRET competition binding) | IC50 [7] | cIAP1 BIR3 vs BIR2 separation window [7] | IC50 ([6]; FRET competition)
C[C@@H]1CN(CC(=O)N2CC(C)(C)c3[nH]c(=O)c(Cc4ccc(F)cc4)cc32)[C@@H](CN2CCO[C@H](COc3cccc(OC[C@@H]4CN(C[C@H]5CN[C@H](C)CN5CC(=O)N5CC(C)(C)c6[nH]c(=O)c(Cc7ccc(F)cc7)cc65)CCO4)c3Cl)C2)CN1 [Example 88, 1,1′-(2,2′-((3R,3′R,6R,6′R)-(((2S,2'S)-(((2-chloro-1,3-phenylene)bis(oxy))bis(methylene))bis(morpholine-2,4-diyl))bis(methylene))bis(3-methylpiperazine-6,1-diyl))bis(acetyl))bis(6-(4-fluorobenzyl)-3,3-dimethyl-1,2,3,4-tetrahydro-5H-pyrrolo[3,2-b]pyridin-5-one)] | 7.94 to 15.8 nM | +++ (10,000>FS>1,000) | 7.94 to 15.8 nM | ++++ (FS>10,000) | 1000 to 3160 nM | 0.49 to 12.6 nM | 1000 to 3160 nM | 10000 to 51300 nM | 7.94 to 15.8 nM | +++ (10,000>FS>1,000) | 
C[C@@H]1CN(CC(=O)N2CC(C)(C)c3[nH]c(=O)c(Cc4ccc(F)cc4)cc32)[C@@H](CN2CCC(COc3cccc(OCC4CCN(C[C@H]5CN[C@H](C)CN5CC(=O)N5CC(C)(C)c6[nH]c(=O)c(Cc7ccc(F)cc7)cc65)CC4)c3)CC2)CN1 [Example 107, 1,1′-(2,2′-((3R,3′R,6R,6′R)-((((1,3-phenylenebis(oxy))bis(methylene))bis(piperidine-4,1-diyl))bis(methylene))bis(3-methylpiperazine-6,1-diyl))bis(acetyl))bis(6-(4-fluorobenzyl)-3,3-dimethyl-1,2,3,4-tetrahydro-5H-pyrrolo[3,2-b]pyridin-5-one)] | 1.38 to 7.94 nM | ++++ (FS>10,000) | 7.94 to 15.8 nM | ++++ (FS>10,000) | 10000 to 51300 nM | 12.6 to 63.1 nM | 1000 to 3160 nM | 10000 to 51300 nM | 7.94 to 15.8 nM | +++ (10,000>FS>1,000) | 
C[C@@H]1CN(CC(=O)N2CC(C)(C)c3[nH]c(=O)c(Cc4ccc(F)cc4)cc32)[C@@H](CN2CCN(C(=O)c3cccnc3-c3ncccc3C(=O)N3CCN(C[C@H]4CN[C@H](C)CN4CC(=O)N4CC(C)(C)c5[nH]c(=O)c(Cc6ccc(F)cc6)cc54)[C@H](C)C3)C[C@H]2C)CN1 [Example 17, 1,1′-(2,2′-((3R,3′R,6R,6′R)-(((2R,2′R)-([2,2′-bipyridine]-3,3′-dicarbonyl)bis(2-methylpiperazine-4,1-diyl))bis(methylene))bis(3-methylpiperazine-6,1-diyl))bis(acetyl))bis(6-(4-fluorobenzyl)-3,3-dimethyl-1,2,3,4-tetrahydro-5H-pyrrolo[3,2-b]pyridin-5-one)] | 1.38 to 7.94 nM | ++ (1,000>FS>100) | 1.38 to 7.94 nM | ++++ (FS>10,000) | 22.4 to 1000 nM | 316 to 3310 nM | 22.4 to 1000 nM | 10000 to 51300 nM | 1.38 to 7.94 nM | ++ (1,000>FS>100) | 
C[C@@H]1CN(CC(=O)N2CC(C)(C)c3[nH]c(=O)c(Oc4ccccc4)cc32)[C@@H](CN2CCO[C@H](C(=O)NCc3ccc(CNC(=O)[C@@H]4CN(C[C@H]5CN[C@H](C)CN5CC(=O)N5CC(C)(C)c6[nH]c(=O)c(Oc7ccccc7)cc65)CCO4)cc3)C2)CN1 [Compound 185, (2S,2′S)-N,N′-(1,4-phenylenebis(methylene)) bis(4-(((2R,5R)-1-(2-(3,3-dimethyl-5-oxo-6-phenoxy-2,3,4,5-tetrahydro-1H-pyrrolo[3,2-b]pyridin-1-yl)-2-oxoethyl)-5-methylpiperazin-2-yl)methyl)morpholine-2-carboxamide)] | 1.38 to 7.94 nM | ++++ (FS>10,000) | 31.6 to 501 nM | +++ (10,000>FS>1,000) | 10000 to 51300 nM | 316 to 3310 nM | 3160 to 10000 nM |  | 15.8 to 31.6 nM | +++ (10,000>FS>1,000) | 10000 to 51300 nM
C[C@@H]1CN(CC(=O)N2CC(C)(C)c3ncc(N(C)c4ccc(F)cc4)cc32)[C@@H](CN2CCO[C@H](COc3cccc(OC[C@@H]4CN(C[C@H]5CN[C@H](C)CN5CC(=O)N5CC(C)(C)c6ncc(N(C)c7ccc(F)cc7)cc65)CCO4)c3)C2)CN1 [Compound 144] | 31.6 to 501 nM | +++ (10,000>FS>1,000) | 31.6 to 501 nM | +++ (10,000>FS>1,000) | 10000 to 51300 nM | 316 to 3310 nM | 10000 to 51300 nM |  | 31.6 to 501 nM | +++ (10,000>FS>1,000) | 10000 to 51300 nM
C[C@@H]1CN(CC(=O)N2CC(C)(C)c3[nH]c(=O)c(Cc4ccc(F)cc4C#N)cc32)[C@@H](CN2CCO[C@H](C(=O)NCc3ccc(CNC(=O)[C@@H]4CN(C[C@H]5CN[C@H](C)CN5CC(=O)N5CC(C)(C)c6[nH]c(=O)c(Cc7ccc(F)cc7C#N)cc65)CCO4)cc3)C2)CN1 [Compound 179, (2S,2′S)-N,N′-(1,4-phenylenebis(methylene)) bis(4-(((2R,5R)-1-(2-(6-(2-cyano-4-fluorobenzyl)-3,3-dimethyl-5-oxo-2,3,4,5-tetrahydro-1H-pyrrolo[3,2-b]pyridin-1-yl)-2-oxoethyl)-5-methylpiperazin-2-yl)methyl)morpholine-2-carboxamide)] | 15.8 to 31.6 nM | +++ (10,000>FS>1,000) | 31.6 to 501 nM | +++ (10,000>FS>1,000) | 1000 to 3160 nM | 12.6 to 63.1 nM | 1000 to 3160 nM |  | 15.8 to 31.6 nM | ++ (1,000>FS>100) | 10000 to 51300 nM
C[C@@H]1CN(CC(=O)N2CC(C)(C)c3[nH]c(=O)c(Cc4ccc(F)cc4)cc32)[C@@H](CN2CCO[C@H](C(=O)NCC(O)CNC(=O)[C@@H]3CN(C[C@H]4CN[C@H](C)CN4CC(=O)N4CC(C)(C)c5[nH]c(=O)c(Cc6ccc(F)cc6)cc54)CCO3)C2)CN1 [Compound 137, (2S,2′S)-N,N′-(2-hydroxypropane-1,3-diyl)bis(4-(((2R,5R)-1-(2-(6-(4-fluorobenzyl)-3,3-dimethyl-5-oxo-2,3,4,5-tetrahydro-1H-pyrrolo[3,2-b]pyridin-1-yl)-2-oxoethyl)-5-methylpiperazin-2-yl)methyl)morpholine-2-carboxamide)] | 7.94 to 15.8 nM | +++ (10,000>FS>1,000) | 15.8 to 31.6 nM | ++++ (FS>10,000) | 1000 to 3160 nM | 63.1 to 316 nM | 1000 to 3160 nM |  | 7.94 to 15.8 nM | +++ (10,000>FS>1,000) | 10000 to 51300 nM
C[C@@H]1CN(CC(=O)N2CC(C)(C)c3[nH]c(=O)c(Cc4ccc(F)cc4)cc32)[C@@H](CN2CCN(C(=O)c3ccnc(-c4cc(C(=O)N5CCN(C[C@H]6CN[C@H](C)CN6CC(=O)N6CC(C)(C)c7[nH]c(=O)c(Cc8ccc(F)cc8)cc76)[C@H](C)C5)ccn4)c3)C[C@H]2C)CN1 [Example 23, 1,1′-(2,2′-((3R,3′R,6R,6′R)-(((2R,2′R)-([2,2′-bipyridine]-4,4′-dicarbonyl)bis(2-methylpiperazine-4,1-diyl))bis(methylene))bis(3-methylpiperazine-6,1-diyl))bis(acetyl))bis(6-(4-fluorobenzyl)-3,3-dimethyl-1,2,3,4-tetrahydro-5H-pyrrolo[3,2-b]pyridin-5-one)] | 1.38 to 7.94 nM |  | 1.38 to 7.94 nM |  | 1000 to 3160 nM | 63.1 to 316 nM | 1000 to 3160 nM | 10000 to 51300 nM | 1.38 to 7.94 nM |  | 
